Measurements reported in patent publication US10201519B2, “Stabilized pediatric suspension of carisbamate” (SK BIOPHARMACEUTICALS CO., LTD., priority 2007, dated 2019).

Test: solubility of carisbamate in water
Type: physicochemical
Conditions: described as slightly soluble
Experimental: Carisbamate has been problematic to formulate in an aqueous suspension because it is slightly soluble in water, i.e., more than 2 mg/ml, so that temperature changes can cause the carisbamate particles to dissolve in the aqueous suspension medium and then re-crystallize out on the remaining carisbamate crystals and change the size of the resulting crystals or re crystallize in a different polymorphic form. This change in crystal size or polymorphic form, e.g., from Form A to Form B, can cause an undesirable change in bioavailability of the suspension. The present invention is based in part on the discovery that the addition of hypromellose (hydroxypropyl methyl cellulose or HPMC) in the proper concentration will prevent or stabilize this crystal growth and therefore serve to stabilize the suspension maintaining bioavailability and improving shelf life of the product.

NC(=O)OC[C@@H](O)c1ccccc1Cl [Carisbamate, S-(2-(2-chlorophenyl)-2-hydroxyethyl) oxocarboxamide]
solubility: > 2000 µg/mL
